System: mouse
Assay: Metrazol Test (tail vein infusion, seizure susceptibility)
Assay type: in vivo
Settings: for Metrazol Dose Required for First Twitch: Dose at First Twitch: about 5 mg/ml infused through tail vein at about 0.375 ml/min
Experimental: A metrazol administration test can be used to screen animals for varying susceptibilities to seizures or similar events. For example, a 5 mg/ml solution of metrazol can be infused through the tail vein of a mouse at a rate of, e.g., approximately 0.375 ml/min. The infusion will cause all mice to experience seizures, followed by death. Those mice that enter the seizure stage the soonest are believed to be more prone to seizures.
To screen for phenotypes involving changes in seizure susceptibility, the Metrazol Test was be used. About 5 mg/ml of Metrazol was infused through the tail vein of the mouse at a constant rate of about 0.375 ml/min. The infusion caused all mice to experience seizures. Those mice who entered the seizure stage the quickest were thought to be more prone to seizures in general.
The Metrazol test can also be used to screen for phenotypes related to epilepsy. Seven to ten adult wild-type and homozygote males were used. A fresh solution of about 5 mg/ml pentylenetetrazole in approximately 0.9% NaCl was prepared prior to testing. Mice were weighed and loosely held in a restrainer. After exposure to a heat lamp to dilate the tail vein, mice were continuously infused with the pentylenetetrazole solution using a syringe pump set at a constant flow rate. The following stages were recorded: first twitch (sometimes accompanied by a squeak), beginning of the tonic/clonic seizure, tonic extension and survival time. The dose required for each phase was determined and the latency to each phase was determined between genotypes. Alterations in any stage may indicate an overall imbalance in excitatory or inhibitory neurotransmitter levels.

SMILES: C1CCc2nnnn2CC1 [Metrazol, pentylenetetrazole]
- dose of metrazol to induce the first twitch response, homozygous mutant (−/−) compared to wild-type (+/+) control mice (age- and gender-matched mice): higher dose
- Metrazol Dose Required for First Twitch: Dose at First Twitch (homozygous mutant (−/−) CLCN4 male mice): 34.14 mg/kg
- Metrazol Dose Required for First Twitch: Dose at First Twitch (wild-type (+/+) male mice): 28.06 mg/kg

— US20060095979A1, “Transgenic mice containing CLCN4 chloride ion channel gene disruptions” (priority 2001, published 2006)
